Results taken from the supplement of paper PMC10307832.

What follows are cell lines tested with C1CC(C2=C(C1)C3=C(N2)C=CC(=C3)Cl)C(=O)N [Selisistat] + C[C@]1(O)C[C@@H](c2nc(-c3ccc4ccc(-c5ccccc5)nc4c3)c3c(N)nccn32)C1 [Linsitinib] (partner 1 µM) (assay: relative viability (nuclei count vs DMSO), 5 days (fraction); higher = more cells survive). Details: first compound 0.4 µM.
Procedure, shortened: (§1)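 Relative viability equals treated-well nuclei counts divided by vehicle-well nuclei counts. Counts came from 4× images of lung cancer cell lines grown in 1536-well plates for 5 days after pin-tool dosing on the day after seeding. Dosing used one drug alone or a fixed anchor-drug dose plus five library-drug doses (not always all listed) in √10 steps, and values are medians of duplicate plates.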

| Cell Line | relative viability |
| --- | --- |
| HCC-78 | 0.571 |
| NCI-H322M | 1 |
| LCLC-97TM1 | 0.166 |
| NCI-H2009 | 1.19 |
| A-427 | 1.21 |
| NCI-H661 | 0.596 |
| NCI-H1734 | 0.956 |
| NCI-H460 | 0.848 |
| NCI-H2347 | 1.05 |
| SK-LU-1 | 1.18 |
| 201T | 1.08 |
| NCI-H1915 | 1.15 |
| HCC-827 | 0.873 |
| LXF-289 | 0.995 |
| NCI-H23 | 0.631 |
| NCI-H647 | 1.15 |

| Cell Line | relative viability |
| --- | --- |
| CAL-12T | 0.85 |
| NCI-H1651 | 0.936 |
| EPLC-272H | 1.24 |
| NCI-H2228 | 0.857 |
| NCI-H1792 | 0.548 |
| NCI-H1355 | 0.903 |
| NCI-H3122 | 1.03 |
| NCI-H1437 | 1.11 |
| NCI-H1755 | 1.11 |
| NCI-H2023 | 0.686 |
| HCC-15 | 1.03 |
| PC-14 | 0.951 |
| EKVX | 1.14 |
| LC-2-ad | 0.88 |
| NCI-H1563 | 1.08 |
| NCI-H1944 | 1.15 |

Same assay, conditions: first compound 1.265 µM

| Cell Line | relative viability |
| --- | --- |
| BEN | 0.986 |
| HARA | 0.917 |
| HCC-78 | 0.483 |
| NCI-H322M | 1.03 |
| LCLC-97TM1 | 0.156 |
| NCI-H2009 | 1.17 |
| A-427 | 1.05 |
| NCI-H661 | 0.609 |
| NCI-H1734 | 0.913 |
| NCI-H460 | 0.663 |
| NCI-H2347 | 0.999 |
| SK-LU-1 | 1.28 |
| 201T | 1.02 |
| NCI-H1915 | 1.09 |
| HCC-827 | 0.873 |
| LXF-289 | 0.954 |
| NCI-H23 | 0.466 |

| Cell Line | relative viability |
| --- | --- |
| NCI-H647 | 1.12 |
| CAL-12T | 0.799 |
| NCI-H1651 | 0.898 |
| EPLC-272H | 1.2 |
| NCI-H2228 | 0.566 |
| NCI-H1792 | 0.594 |
| NCI-H1355 | 0.838 |
| NCI-H3122 | 0.953 |
| NCI-H1437 | 0.981 |
| NCI-H1755 | 1.04 |
| NCI-H2023 | 0.581 |
| HCC-15 | 0.918 |
| PC-14 | 1.05 |
| EKVX | 0.982 |
| LC-2-ad | 0.846 |
| NCI-H1563 | 1.15 |
| NCI-H1944 | 1.17 |

Same assay, conditions: first compound 4 µM

| Cell Line | relative viability |
| --- | --- |
| BEN | 0.812 |
| HARA | 0.854 |
| HCC-78 | 0.553 |
| LCLC-97TM1 | 0.193 |
| NCI-H2009 | 1.19 |
| A-427 | 1.1 |
| NCI-H661 | 0.52 |
| NCI-H1734 | 0.913 |
| NCI-H2347 | 0.733 |
| SK-LU-1 | 1.35 |
| 201T | 0.998 |
| NCI-H1915 | 1.14 |
| HCC-827 | 0.941 |
| LXF-289 | 0.895 |
| CAL-12T | 0.82 |
| NCI-H1651 | 1.02 |
| NCI-H2228 | 0.562 |
| NCI-H3122 | 0.872 |
| NCI-H1437 | 1.09 |
| NCI-H1755 | 0.993 |
| NCI-H2023 | 0.662 |
| PC-14 | 0.963 |
| EKVX | 0.983 |
| LC-2-ad | 0.867 |
| NCI-H1563 | 1.17 |

Same assay, conditions: first compound 12.65 µM

| Cell Line | relative viability |
| --- | --- |
| BEN | 0.762 |
| HARA | 0.844 |
| HCC-78 | 0.537 |
| NCI-H322M | 0.959 |
| LCLC-97TM1 | 0.167 |
| NCI-H2009 | 1.1 |
| A-427 | 1.15 |
| NCI-H661 | 0.488 |
| NCI-H1734 | 0.846 |
| NCI-H460 | 0.821 |
| NCI-H2347 | 0.973 |
| SK-LU-1 | 1.1 |
| 201T | 0.967 |
| NCI-H1915 | 1.08 |
| HCC-827 | 0.948 |
| LXF-289 | 0.913 |
| NCI-H23 | 0.579 |

| Cell Line | relative viability |
| --- | --- |
| NCI-H647 | 1.07 |
| CAL-12T | 0.784 |
| NCI-H1651 | 1.05 |
| EPLC-272H | 1 |
| NCI-H2228 | 0.656 |
| NCI-H1792 | 0.438 |
| NCI-H1355 | 0.974 |
| NCI-H3122 | 1.06 |
| NCI-H1437 | 0.986 |
| NCI-H1755 | 1.02 |
| NCI-H2023 | 0.735 |
| HCC-15 | 0.902 |
| PC-14 | 0.946 |
| EKVX | 0.914 |
| LC-2-ad | 0.808 |
| NCI-H1563 | 1.07 |
| NCI-H1944 | 1.21 |

Same assay, conditions: first compound 40 µM

| Cell Line | relative viability |
| --- | --- |
| BEN | 0.827 |
| HARA | 0.983 |
| HCC-78 | 0.437 |
| NCI-H322M | 0.976 |
| LCLC-97TM1 | 0.245 |
| NCI-H2009 | 1.18 |
| A-427 | 1.15 |
| NCI-H661 | 0.588 |
| NCI-H1734 | 0.828 |
| NCI-H460 | 0.824 |
| NCI-H2347 | 0.979 |
| SK-LU-1 | 1.04 |
| 201T | 1.06 |
| NCI-H1915 | 1.13 |
| HCC-827 | 1.01 |
| LXF-289 | 1.01 |
| NCI-H23 | 0.6 |

| Cell Line | relative viability |
| --- | --- |
| NCI-H647 | 1.26 |
| CAL-12T | 0.862 |
| NCI-H1651 | 0.849 |
| EPLC-272H | 1.2 |
| NCI-H2228 | 0.598 |
| NCI-H1792 | 0.635 |
| NCI-H1355 | 0.996 |
| NCI-H3122 | 0.994 |
| NCI-H1437 | 0.89 |
| NCI-H1755 | 1.05 |
| NCI-H2023 | 0.569 |
| HCC-15 | 0.696 |
| PC-14 | 0.951 |
| EKVX | 0.939 |
| LC-2-ad | 0.856 |
| NCI-H1563 | 0.83 |
| NCI-H1944 | 1.18 |

These cell lines were tested with c1ccc2c(CCNc3ccc(Nc4ccncc4)cc3)c[nH]c2c1 [Serdemetan] + COc1cccc2cc(-c3nc([C@H]4CC[C@H](C(=O)O)CC4)n4ncnc(N)c34)[nH]c12 [OSI-027] (partner 0.5 µM) in the same assay as above. Details: first compound 0.04 µM.
Procedure, shortened: as §1

| Cell Line | relative viability |
| --- | --- |
| BEN | 0.307 |
| HARA | 0.528 |
